Data: PubChem BioAssay AID1963966 (Molecular Pharmacology Branch, DTP, NCI, 2024)

System: 935938-334-R-J1-PDC spheroids with HUVEC/MSC, viability
Assay: Anticancer human tumor 935938-334-R-J1-PDC patient-derived small intestine adenocarcinoma cell line growth inhibition [PI3K]
Conditions: for IC50: curve of first compound; for viability, T/C: stronger effect = lower value
How it was run: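 We assembled tumor spheroids that included a stromal compartment of HUVEC and MSCs, then exposed them to targeted agents alone and together with PI3K pathway inhibitors. Concentration series descended by half-log from clinically achievable Cmax levels. Viability served as the endpoint.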

[1] = second compound 0.00316 µM, first compound 0.0316 µM
[2] = second compound 0.00316 µM, first compound 0.1 µM
[3] = second compound 0.00316 µM, first compound 0.316 µM
[4] = second compound 0.00316 µM, first compound 1 µM
[5] = second compound 0.01 µM, first compound 0.0316 µM
[6] = second compound 0.01 µM, first compound 0.1 µM
[7] = second compound 0.01 µM, first compound 0.316 µM
[8] = second compound 0.01 µM, first compound 1 µM
[9] = second compound 0.0316 µM, first compound 0.0316 µM
[10] = second compound 0.0316 µM, first compound 0.1 µM
[11] = second compound 0.0316 µM, first compound 0.316 µM
[12] = second compound 0.0316 µM, first compound 1 µM
[13] = second compound 0.1 µM, first compound 0.0316 µM
[14] = second compound 0.1 µM, first compound 0.1 µM
[15] = second compound 0.1 µM, first compound 0.316 µM
[16] = second compound 0.1 µM, first compound 1 µM
[17] = second compound 0.316 µM, first compound 0.0316 µM
[18] = second compound 0.316 µM, first compound 0.1 µM
[19] = second compound 0.316 µM, first compound 0.316 µM
[20] = second compound 0.316 µM, first compound 1 µM
[21] = second compound 1 µM, first compound 0.0316 µM
[22] = second compound 1 µM, first compound 0.1 µM
[23] = second compound 1 µM, first compound 0.316 µM
[24] = second compound 1 µM, first compound 1 µM
[25] = second compound 0.00316 µM, first compound 3.16 µM
[26] = second compound 0.00316 µM, first compound 10 µM
[27] = second compound 0.01 µM, first compound 3.16 µM
[28] = second compound 0.01 µM, first compound 10 µM
[29] = second compound 0.0316 µM, first compound 3.16 µM
[30] = second compound 0.0316 µM, first compound 10 µM
[31] = second compound 0.1 µM, first compound 3.16 µM
[32] = second compound 0.1 µM, first compound 10 µM
[33] = second compound 0.316 µM, first compound 3.16 µM
[34] = second compound 0.316 µM, first compound 10 µM
[35] = second compound 1 µM, first compound 3.16 µM
[36] = second compound 1 µM, first compound 10 µM
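Note: compound exposure lasted seven days before viability was read.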
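Throughout, for viability, T/C: percent of vehicle DMSO treated spheroid viability so 100% = untreated.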

## CCN1CCN(Cc2ccc(Nc3ncc(F)c(-c4cc(F)c5nc(C)n(C(C)C)c5c4)n3)nc2)CC1 + COc1c(OCCCN2CCOCC2)ccc2c3n(c(=NC(=O)c4cnc(N)nc4)nc12)CCN3
Second compound 0.00316 µM
  IC50: 296 nM
Second compound 0.01 µM
  IC50: 582 nM
Second compound 0.0316 µM
  IC50: 91.8 nM
Second compound 0.1 µM
  IC50: < 3.16 nM
Second compound 0.316 µM
  IC50: < 3.16 nM
Second compound 1 µM
  IC50: < 3.16 nM
Second compound 0.00316 µM, first compound 0.00316 µM
  viability, T/C: 80.1%
Second compound 0.00316 µM, first compound 0.01 µM
  viability, T/C: 93.5%
[1]
  viability, T/C: 89.8%
[2]
  viability, T/C: 72%
[3]
  viability, T/C: 49.9%
[4]
  viability, T/C: 43.5%
Second compound 0.01 µM, first compound 0.00316 µM
  viability, T/C: 97.4%
Second compound 0.01 µM, first compound 0.01 µM
  viability, T/C: 74%
[5]
  viability, T/C: 68.6%
[6]
  viability, T/C: 60.4%
[7]
  viability, T/C: 51.8%
[8]
  viability, T/C: 47.1%
Second compound 0.0316 µM, first compound 0.00316 µM
  viability, T/C: 66.5%
Second compound 0.0316 µM, first compound 0.01 µM
  viability, T/C: 66.1%
[9]
  viability, T/C: 60.8%
[10]
  viability, T/C: 47.8%
[11]
  viability, T/C: 38.8%
[12]
  viability, T/C: 30.3%
Second compound 0.1 µM, first compound 0.00316 µM
  viability, T/C: 45.9%
Second compound 0.1 µM, first compound 0.01 µM
  viability, T/C: 40.7%
[13]
  viability, T/C: 37%
[14]
  viability, T/C: 37.7%
[15]
  viability, T/C: 29.6%
[16]
  viability, T/C: 28.4%
Second compound 0.316 µM, first compound 0.00316 µM
  viability, T/C: 36.2%
Second compound 0.316 µM, first compound 0.01 µM
  viability, T/C: 33.8%
[17]
  viability, T/C: 27.1%
[18]
  viability, T/C: 29.6%
[19]
  viability, T/C: 33.1%
[20]
  viability, T/C: 30.8%
Second compound 1 µM, first compound 0.00316 µM
  viability, T/C: 32.6%
Second compound 1 µM, first compound 0.01 µM
  viability, T/C: 35%
[21]
  viability, T/C: 35.6%
[22]
  viability, T/C: 28.5%
[23]
  viability, T/C: 32.7%
[24]
  viability, T/C: 28.6%

## Cn1ncc(Cl)c1-c1cc(C(=O)NC(CN)Cc2cccc(F)c2)sc1Cl (stereo unspecified) + COc1c(OCCCN2CCOCC2)ccc2c3n(c(=NC(=O)c4cnc(N)nc4)nc12)CCN3
Second compound 0.00316 µM
  IC50: 1680 nM
Second compound 0.01 µM
  IC50: 1180 nM
Second compound 0.0316 µM
  IC50: 1040 nM
Second compound 0.1 µM
  IC50: 57.2 nM
Second compound 0.316 µM
  IC50: < 31.6 nM
Second compound 1 µM
  IC50: < 31.6 nM
[1]
  viability, T/C: 103%
[2]
  viability, T/C: 114%
[3]
  viability, T/C: 60.6%
[4]
  viability, T/C: 63.7%
[25]
  viability, T/C: 49.3%
[26]
  viability, T/C: 32.8%
[5]
  viability, T/C: 78.7%
[6]
  viability, T/C: 86.6%
[7]
  viability, T/C: 65.5%
[8]
  viability, T/C: 50.9%
[27]
  viability, T/C: 41.1%
[28]
  viability, T/C: 28.5%
[9]
  viability, T/C: 70.7%
[10]
  viability, T/C: 71.3%
[11]
  viability, T/C: 68%
[12]
  viability, T/C: 50.4%
[29]
  viability, T/C: 30.6%
[30]
  viability, T/C: 25%
[13]
  viability, T/C: 55%
[14]
  viability, T/C: 43%
[15]
  viability, T/C: 41.7%
[16]
  viability, T/C: 37.8%
[31]
  viability, T/C: 25.3%
[32]
  viability, T/C: 27%
[17]
  viability, T/C: 35.5%
[18]
  viability, T/C: 30.2%
[19]
  viability, T/C: 30.9%
[20]
  viability, T/C: 28.6%
[33]
  viability, T/C: 26.8%
[34]
  viability, T/C: 20.9%
[21]
  viability, T/C: 33.5%
[22]
  viability, T/C: 26.9%
[23]
  viability, T/C: 34.2%
[24]
  viability, T/C: 34.5%
[35]
  viability, T/C: 32.6%
[36]
  viability, T/C: 21.6%

## Cn1nccc1Nc1nccc(-c2ccn(C(CO)c3ccc(Cl)c(F)c3)c(=O)c2)n1 (stereo unspecified) + COc1c(OCCCN2CCOCC2)ccc2c3n(c(=NC(=O)c4cnc(N)nc4)nc12)CCN3
Second compound 0.00316 µM
  IC50: 1380 nM
Second compound 0.01 µM
  IC50: 1500 nM
Second compound 0.0316 µM
  IC50: 566 nM
Second compound 0.1 µM
  IC50: < 31.6 nM
Second compound 0.316 µM
  IC50: < 31.6 nM
Second compound 1 µM
  IC50: < 31.6 nM
[1]
  viability, T/C: 81.5%
[2]
  viability, T/C: 99.5%
[3]
  viability, T/C: 54.7%
[4]
  viability, T/C: 58.4%
[25]
  viability, T/C: 41.4%
[26]
  viability, T/C: 25.2%
[5]
  viability, T/C: 85.7%
[6]
  viability, T/C: 77.8%
[7]
  viability, T/C: 68.9%
[8]
  viability, T/C: 55.6%
[27]
  viability, T/C: 39.9%
[28]
  viability, T/C: 28%
[9]
  viability, T/C: 58.8%
[10]
  viability, T/C: 76.7%
[11]
  viability, T/C: 49.2%
[12]
  viability, T/C: 46.1%
[29]
  viability, T/C: 33.5%
[30]
  viability, T/C: 28%
[13]
  viability, T/C: 49.4%
[14]
  viability, T/C: 39.6%
[15]
  viability, T/C: 40.1%
[16]
  viability, T/C: 28%
[31]
  viability, T/C: 18.1%
[32]
  viability, T/C: 20.6%
[17]
  viability, T/C: 36.4%
[18]
  viability, T/C: 32%
[19]
  viability, T/C: 22.3%
[20]
  viability, T/C: 22.4%
[33]
  viability, T/C: 21.7%
[34]
  viability, T/C: 23%
[21]
  viability, T/C: 34.6%
[22]
  viability, T/C: 27%
[23]
  viability, T/C: 25.1%
[24]
  viability, T/C: 23.9%
[35]
  viability, T/C: 19.5%
[36]
  viability, T/C: 17.9%
